The values below come from PMC10707797, “Ureidobenzenesulfonamides as Selective Carbonic Anhydrase I, IX, and XII Inhibitors” (Molecules, 2023).

SMILES strings stand for the structures.

Series [1] addresses T1, hCA IX (Homo sapiens, UniProt Q16790). Description: stop-flow CA inhibition assay, hCA IX. The note with it: for S(I/IX) selectivity: ratio Ki hCA I / Ki hCA IX; for S(II/IX) selectivity: ratio Ki hCA II / Ki hCA IX.
In series [2] the target is T1, hCA IX. Description: biochemical.
Series [3] deals with hCA II (Homo sapiens, UniProt P00918). Description: biochemical.
The target in series [4] is T2, hCA XII (Homo sapiens, UniProt O43570). The experiment in a line: stop-flow CA inhibition assay, hCA XII. The note with it: for S(I/XII) selectivity: ratio Ki hCA I / Ki hCA XII; for S(II/XII) selectivity: ratio Ki hCA II / Ki hCA XII.
The target of series [5] is hCA I (Homo sapiens, UniProt P00915). The experiment in a line: biochemical.
Series [6] has as its target T2, hCA XII. Description: biochemical.

One may read the Ki as a dissociation constant, usually derived from enzyme kinetics or from competition with a known ligand. A low value points to tighter binding. The term melting point denotes the temperature, or range, at which the solid turns liquid.

T2 sequence (O43570 25-354): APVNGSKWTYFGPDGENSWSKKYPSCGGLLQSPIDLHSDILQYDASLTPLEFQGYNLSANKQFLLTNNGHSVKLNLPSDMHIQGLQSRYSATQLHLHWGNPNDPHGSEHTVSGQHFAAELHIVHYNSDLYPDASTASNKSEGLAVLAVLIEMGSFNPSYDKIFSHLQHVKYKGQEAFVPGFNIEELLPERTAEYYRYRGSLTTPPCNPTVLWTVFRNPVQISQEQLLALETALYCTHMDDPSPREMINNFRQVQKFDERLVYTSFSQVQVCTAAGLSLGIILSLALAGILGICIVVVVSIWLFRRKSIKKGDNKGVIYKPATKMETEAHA
Sequence of hCA I (P00915 whole entry): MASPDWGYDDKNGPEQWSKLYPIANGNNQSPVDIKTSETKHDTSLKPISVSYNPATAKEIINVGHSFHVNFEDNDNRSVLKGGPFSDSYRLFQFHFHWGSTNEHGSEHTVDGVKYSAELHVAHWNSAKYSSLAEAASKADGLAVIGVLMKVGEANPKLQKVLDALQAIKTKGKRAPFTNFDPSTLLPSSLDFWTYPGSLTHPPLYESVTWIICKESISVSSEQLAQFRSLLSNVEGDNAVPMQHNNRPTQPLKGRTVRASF

Turning to `NS(=O)(=O)c1ccc(NC(=O)Nc2cccc3ccccc23)cc1` [Compound 1, 4-[3-(Naphthalen-1-yl)ureido]benzenesulfonamide], the “S(I/IX) selectivity” value in series [1] stood at 5.66. In addition, in series [1], the “S(II/IX) selectivity” value turned out to be 0.78. Also, the Ki in series [2] came out at 42.9 nM; in series [3] it was 33.5 nM; in series [5], 243 nM; in series [6], 15.5 nM. Further, the “S(I/XII) selectivity” value in series [4] is 15.66. For the same molecule, in series [4], the “S(II/XII) selectivity” value worked out at 2.16.

As for `NS(=O)(=O)c1ccc(NC(=O)Nc2ccc(Cc3ccccc3)cc2)cc1` [Compound 2, 4-[3-(4-Benzylphenyl)ureido]benzenesulfonamide], the melting point fell in the range of 230 to 232 °C.

In the case of `NS(=O)(=O)c1ccc(NC(=O)Nc2ccccc2Cc2ccccc2)cc1` [Compound 3], the melting point fell in the range of 219 to 221 °C.

For `COc1ccc(-c2ccccc2)cc1NC(=O)Nc1ccc(S(N)(=O)=O)cc1` [Compound 4], the melting point is 271 to 272 °C. Besides, the affinity in series [3], expressed as Ki, was 5030 nM. In series [5], this molecule gave a Ki of 6650 nM.

The molecule `COc1ccc(NC(=O)Nc2ccc(S(N)(=O)=O)cc2)cc1` [Compound 5] yielded a melting point of 227 to 229 °C.

Consider `COc1cccc(NC(=O)Nc2ccc(S(N)(=O)=O)cc2)c1` [Compound 6, 4-[3-(3-Methoxyphenyl)ureido]benzenesulfonamide], for which the results for the Ki in series [2] and in series [6] were 210 nM and 90.4 nM, respectively.

As for `NS(=O)(=O)c1ccc(NC(=O)Nc2cccc(F)c2)cc1` [Compound 7, 4-[3-(3-Fluorophenyl)ureido]benzenesulfonamide], the melting point lay in the range of 240 to 241 °C.

`CCNC(=O)Nc1ccc(S(N)(=O)=O)cc1` [Compound 8, 4-(3-Ethylureido)benzenesulfonamide]: the melting point is 229 to 231 °C.

On to `CC(C)NC(=O)Nc1ccc(S(N)(=O)=O)cc1` [Compound 9, 4-(3-Isopropylureido)benzenesulfonamide], for which the melting point was 221 to 223 °C. The molecule also had a Ki in series [2] of 184 nM. The Ki in series [5] was 448 nM. The molecule further gave a Ki in series [6] of 45.9 nM.

Consider `CCCCNC(=O)Nc1ccc(S(N)(=O)=O)cc1` [Compound 10, 4-(3-Butylureido)benzenesulfonamide], for which the melting point is 194 to 196 °C.

As to `CCCCCCNC(=O)Nc1ccc(S(N)(=O)=O)cc1` [Compound 11, 4-(3-Hexylureido)benzenesulfonamide], the melting point fell in the range of 202 to 203 °C.

As to `NS(=O)(=O)c1ccc(NC(=O)NC(=O)c2ccccc2)cc1` [Compound 12, N-[(4-Sulfamoylphenyl)carbamoyl]benzamide], the melting point fell in the range of 262 to 264 °C. In series [1], the “S(I/IX) selectivity” value is reported as 4.57 and the “S(II/IX) selectivity” value amounted to 1.01. In addition, the Ki in series [2] is 208 nM. Besides, the Ki in series [3] is 209 nM. In series [4], the “S(I/XII) selectivity” value is 14.84 and the “S(II/XII) selectivity” value is listed as 3.27. For the same molecule, in series [5], the Ki was 949 nM. This molecule gave a Ki in series [6] of 63.9 nM.

In turn, `CCOC(=O)c1ccc(NC(=O)Nc2ccc(S(N)(=O)=O)cc2)cc1` [Compound 13, Ethyl 4-[3-(4-sulfamoylphenyl)ureido]benzoate] returned a melting point of 261 to 263 °C.

`NS(=O)(=O)c1ccc(NC(=O)Nc2ccc(C(=O)O)cc2)cc1` [Compound 14, 4-[3-(4-Sulfamoylphenyl)ureido]benzoic acid] showed a melting point of 310 to 313 °C.

Molecule `NS(=O)(=O)c1ccc(NC(=O)Nc2cc(Cl)ccc2Oc2ccccc2)cc1` [Compound 15, 4-[3-(5-Chloro-2-phenoxyphenyl)ureido]benzenesulfonamide] gave a melting point of 209 °C.
